The record followed here is patent US9862711B2, “Pyrazine derivatives as phosphatidylinositol 3-kinase inhibitors” (NOVARTIS AG, priority 2014, dated 2018).

Structures are written as SMILES.

Sequence of PI 3-kinase gamma (P48736 whole entry): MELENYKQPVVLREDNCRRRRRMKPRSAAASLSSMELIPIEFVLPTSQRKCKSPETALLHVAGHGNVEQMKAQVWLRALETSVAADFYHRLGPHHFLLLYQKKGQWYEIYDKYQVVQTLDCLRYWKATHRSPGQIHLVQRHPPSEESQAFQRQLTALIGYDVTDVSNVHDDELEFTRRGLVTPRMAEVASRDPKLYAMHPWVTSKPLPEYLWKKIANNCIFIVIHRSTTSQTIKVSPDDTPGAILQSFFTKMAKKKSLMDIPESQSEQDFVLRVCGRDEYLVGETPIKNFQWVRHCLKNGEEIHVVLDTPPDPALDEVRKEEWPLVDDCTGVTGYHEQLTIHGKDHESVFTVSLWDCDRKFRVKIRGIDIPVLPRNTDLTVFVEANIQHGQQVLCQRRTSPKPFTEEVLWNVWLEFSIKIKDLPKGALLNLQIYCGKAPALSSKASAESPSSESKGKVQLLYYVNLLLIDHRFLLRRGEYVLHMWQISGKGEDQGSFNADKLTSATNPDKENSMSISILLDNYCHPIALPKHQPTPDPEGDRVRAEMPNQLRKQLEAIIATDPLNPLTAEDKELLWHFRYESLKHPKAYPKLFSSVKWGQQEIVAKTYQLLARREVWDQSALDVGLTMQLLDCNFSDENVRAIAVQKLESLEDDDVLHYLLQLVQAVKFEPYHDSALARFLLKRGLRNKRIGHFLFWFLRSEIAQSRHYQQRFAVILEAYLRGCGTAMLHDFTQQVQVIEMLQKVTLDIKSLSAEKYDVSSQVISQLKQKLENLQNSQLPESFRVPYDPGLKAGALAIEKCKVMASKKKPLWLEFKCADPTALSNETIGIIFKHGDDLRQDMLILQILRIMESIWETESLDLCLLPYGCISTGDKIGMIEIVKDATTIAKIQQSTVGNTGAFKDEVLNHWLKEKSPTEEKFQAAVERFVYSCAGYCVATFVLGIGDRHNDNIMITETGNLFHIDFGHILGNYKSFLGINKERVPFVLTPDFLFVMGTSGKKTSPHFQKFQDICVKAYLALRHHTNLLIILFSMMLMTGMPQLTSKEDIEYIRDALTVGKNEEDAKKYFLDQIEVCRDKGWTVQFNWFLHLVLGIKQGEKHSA

In the experiment the target is PI 3-kinase gamma (Homo sapiens (Human), UniProt P48736). In words: Cellular U937 AKT assay (Assay K). As to conditions: AKT phosphorylation in U937 monocyte cells stimulated with 10 ng/ml MIP1α; read-out: Assay K PI3Kγ IC50. It is filed as cell-based. As to the method:
Cellular U937 AKT Assay for PI 3-Kinase Gamma (K)
The U937 monocyte cell line is maintained in a basal medium of RPMI 1640 supplemented with 10% heat inactivated FCS, 100 U/ml Penicillin, 100 ug/ml streptomycin and 2 mM L-glutamine (Invitrogen). U937 suspension culture is maintained by seeding cells at a density of 0.125×10^6 cells per ml in fresh medium every three or four days. Cells are incubated at 37° C., 5% CO2. Three or four days prior to assay, cells are seeded at a density of 0.25×10^6 cells per ml in a total volume of 40 ml in a T162 culture flask.
Before beginning the cell manipulations described below, the MSD (Meso Scale Discovery) assay plate is blocked by addition of 150 ul/well blocking buffer supplied and incubated with shaking for a minimum of one hour at room temperature. All steps of the assay must be performed quickly, with accurately timed incubation periods and observing temperature controls where indicated.
Cells seeded at 0.25×10^6/ml 3 or 4 days prior to the assay are aspirated, transferred to a 50 ml falcon tube, counted and centrifuged for eight minutes at 300 g at room temperature. Supernatant is aspirated, the cell pellet resuspended and washed once in HBSS (Hank's Balanced Salt Solution) by centrifugation for eight minutes at 300 g at room temperature. The cell pellet is resuspended in HBSS to a concentration of 4×10^6 per ml, and 100 μL of cell suspension added to each well of a flat-bottomed 96-well tissue culture plate. Assay plates are incubated for 1.5 hours at 37° C., 5% CO2 to allow background AKT phosphorylation to reduce before the compound stimulation step.
A 5 mM stock concentration of compound is prepared in 100% DMSO; from this a 1 in 125 dilution is made in HBSS giving a top compound concentration of 40 μM, 0.8% DMSO. Compound titrations are prepared in a fresh flat-bottomed, 96-well plate, by 10-fold serial dilution of 40 uM into HBSS 0.8% DMSO; pipette tips are replaced after each dilution is made. Compound concentrations at this stage are 4-times the final concentration required in the assay plate. Cells are stimulated with compound or HBSS 0.8% DMSO by direct transfer of 50 ul/well from the compound dilution plate. The assay plate containing compound-treated cells is then incubated for 30 minutes at 37° C. A standard plate layout is used for all experiments.
Compound-treated cells, in addition to positive control wells (“max MIP1α”), are stimulated with 50 μL per well of 40 ng/ml MIP1α (R&D Systems catalogue number 270-LD, lyophilized stock reconstituted to 50 μg/ml with PBS 0.1% BSA). Negative control wells (“min HBSS”), are stimulated with 50 μl/well of HBSS in the absence of MIP1α. Final compound concentrations are now diluted 4-fold giving a top concentration of 10 μM; where added, the final concentration of MIP1α is 10 ng/ml. Cells are incubated with MIP1α for 3 minutes, at 37° C., 5% CO2. After the three minute stimulation period, the assay plate is kept ice cold at all times. Assay plates are centrifuged for 2 minutes at 300 g, 4° C. and supernatant is removed by gently inverting, and then blotting the plate on tissue. Cells are then washed by gentle addition of 150 μL/well of ice cold HBSS and centrifugation at 300 g, for 5 minutes at 4° C. Supernatant is aspirated and the plate blotted as described above. The plate is placed on ice and cells are immediately treated with 35 μL per well of ice cold lysis buffer, prepared according to the kit instructions (per assay plate, to 5 ml of Tris lysis buffer add 100 μl of 50× protease inhibitor solution and 50 μl of each 100× phosphatase inhibitor solutions I and II). Plates are incubated on ice for 20 minutes before centrifugation at 841 g for 5 minutes, 4° C.
Block buffer is aspirated from the MSD plate, and the plate washed four times with 300 μl/well Tris wash buffer. 25 μL of cell lysate is then transferred from the assay plate to the washed MSD plate which is sealed and incubated at room temperature for one hour with shaking. […]
One may read the IC50 as the concentration needed to halve the response being measured. `Cc1ncc(-c2cncc(-c3cc(S(=O)(=O)NCCCO)ccc3C)n2)s1` [Example 1, N-(3-Hydroxy-propyl)-4-methyl-3-[6-(2-methyl-thiazol-5-yl)-pyrazin-2-yl]-benzenesulfonamide]: the IC50 came to 0.329 µM.

Turning to `Cc1ccc(S(=O)(=O)NCC(C)(C)O)cc1-c1cncc(-c2cn(C)nc2C)n1` [Example 2, 3-[6-(1,3-Dimethyl-1H-pyrazol-4-yl)-pyrazin-2-yl]-N-(2-hydroxy-2-methyl-propyl)-4-methyl-benzenesulfonamide], the IC50 amounted to 0.066 µM. For the compound `Cc1ccc(S(=O)(=O)NCCC(C)(C)O)cc1-c1cncc(-c2cn(C)nc2C)n1` [Example 3, 3-[6-(1,3-Dimethyl-1H-pyrazol-4-yl)-pyrazin-2-yl]-N-(3-hydroxy-3-methyl-butyl)-4-methyl-benzenesulfonamide], the 50% inhibitory concentration (IC50) came to 0.08 µM. As for `Cc1ccc(S(=O)(=O)NCC2(C)COC2)cc1-c1cncc(-c2cn(C)nc2C)n1` [Example 4, Trans 3-[6-(1,3-Dimethyl-1H-pyrazol-4-yl)-pyrazin-2-yl]-4-methyl-N-(3-methyl-oxetan-3-ylmethyl)-benzenesulfonamide], the IC50 worked out at 0.054 µM. Consider `Cc1ncc(-c2cncc(-c3cc(S(=O)(=O)N[C@H]4CC[C@H](O)CC4)ccc3C)n2)s1` [Example 5, Trans N-(4-Hydroxycyclohexyl)-4-methyl-3-(6-(2-methylthiazol-5-yl)pyrazin-2-yl)benzenesulfonamide], for which the IC50 was 0.038 µM.

As for `Cc1ccc(S(=O)(=O)NCC(C)(C)CO)cc1-c1cncc(-c2cn(C)nc2C)n1` [Example 8, 3-[6-(1,3-Dimethyl-1H-pyrazol-4-yl)-pyrazin-2-yl]-N-(3-hydroxy-2,2-dimethyl-propyl)-4-methyl-benzenesulfonamide], the IC50 was 0.096 µM.

Regarding `Cc1ccc(S(=O)(=O)NCCC(C)(C)O)cc1-c1cncc(-c2cnn(CCN3CCOCC3)c2)n1` [Example 9, N-(3-Hydroxy-3-methyl-butyl)-4-methyl-3-{6-[1-(2-morpholin-4-yl-ethyl)-1H-pyrazol-4-yl]-pyrazin-2-yl}-benzenesulfonamide], the IC50 worked out at 0.599 µM. For the compound `Cc1ccc(S(=O)(=O)NCCC(C)(C)O)cc1-c1cncc(-c2cn(CCN3CCOCC3)nc2C)n1` [Example 10, N-(3-Hydroxy-3-methyl-butyl)-4-methyl-3-{6-[3-methyl-1-(2-morpholin-4-yl-ethyl)-1H-pyrazol-4-yl]-pyrazin-2-yl}-benzenesulfonamide], the half-inhibitory concentration (IC50) stood at 0.121 µM. Take `Cc1ccc(S(=O)(=O)N[C@H]2CC[C@H](O)CC2)cc1-c1cncc(-c2cccnc2)n1` [Example 11, Trans N-(4-Hydroxy-cyclohexyl)-4-methyl-3-(6-pyridin-3-yl-pyrazin-2-yl)-benzenesulfonamide]: the IC50 is 0.213 µM.
